Laboratory results published in PubChem BioAssay AID1918939 (Molecular Pharmacology Branch, DTP, NCI, 2023).
pIC50: −log10 of the molar value.

System: 653999-131-R-J2-PDC complex spheroid viability
Experiment: Anticancer human tumor 653999-131-R-J2-PDC patient-derived lung adenocarcinoma cell line growth inhibition
Conditions: for pIC50: curve of first compound; for viability, T/C: stronger effect = lower value
Summary of the method: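 Complex spheroids of tumor cells with HUVEC and human MSCs, exposed to iadademstat combined with other agents. Each agent tested in half-log steps from near clinical Cmax (else 10 microM top), DMSO ≤0.25%.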

[1] = second compound 0.1 µM, first compound 0.0316 µM
[2] = second compound 0.1 µM, first compound 0.1 µM
[3] = second compound 0.1 µM, first compound 0.316 µM
[4] = second compound 0.1 µM, first compound 1 µM
[5] = second compound 0.1 µM, first compound 3.16 µM
[6] = second compound 0.1 µM, first compound 10 µM
[7] = second compound 0.316 µM, first compound 0.0316 µM
[8] = second compound 0.316 µM, first compound 0.1 µM
[9] = second compound 0.316 µM, first compound 0.316 µM
[10] = second compound 0.316 µM, first compound 1 µM
[11] = second compound 0.316 µM, first compound 3.16 µM
[12] = second compound 0.316 µM, first compound 10 µM
[13] = second compound 1 µM, first compound 0.0316 µM
[14] = second compound 1 µM, first compound 0.1 µM
[15] = second compound 1 µM, first compound 0.316 µM
[16] = second compound 1 µM, first compound 1 µM
[17] = second compound 1 µM, first compound 3.16 µM
[18] = second compound 1 µM, first compound 10 µM
[19] = second compound 3.16 µM, first compound 0.0316 µM
[20] = second compound 3.16 µM, first compound 0.1 µM
[21] = second compound 3.16 µM, first compound 0.316 µM
[22] = second compound 3.16 µM, first compound 1 µM
[23] = second compound 3.16 µM, first compound 3.16 µM
[24] = second compound 3.16 µM, first compound 10 µM
[25] = second compound 10 µM, first compound 0.0316 µM
[26] = second compound 10 µM, first compound 0.1 µM
[27] = second compound 10 µM, first compound 0.316 µM
[28] = second compound 10 µM, first compound 1 µM
[29] = second compound 10 µM, first compound 3.16 µM
[30] = second compound 10 µM, first compound 10 µM
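Further: spheroids exposed to agents for seven days before readout.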

Question: What does the source list for CC(C)c1c(-c2ccccc2)nc2c(C#N)c[nH]n2c1=O + NC1CC1c1ccc(-c2cccc(O)c2)cc1?
Answer: pIC50 (second compound 0.1 µM): < 5.00; pIC50 (second compound 0.316 µM): < 5.00; pIC50 (second compound 1 µM): < 5.00; pIC50 (second compound 3.16 µM): < 5.00; pIC50 (second compound 10 µM): < 5.00; viability, T/C [1]: 87.3%; viability, T/C [2]: 96.5%; viability, T/C [3]: 89.1%; viability, T/C [4]: 76.9%; viability, T/C [5]: 80.1%; viability, T/C [6]: 80.5%; viability, T/C [7]: 84%; viability, T/C [8]: 83.7%; viability, T/C [9]: 90.9%; viability, T/C [10]: 74.8%; viability, T/C [11]: 64.2%; viability, T/C [12]: 66.2%; viability, T/C [13]: 73.1%; viability, T/C [14]: 87.2%; viability, T/C [15]: 86.1%; viability, T/C [16]: 77.8%; viability, T/C [17]: 66.7%; viability, T/C [18]: 72.2%; viability, T/C [19]: 84.2%; viability, T/C [20]: 72.5%; viability, T/C [21]: 80.2%; viability, T/C [22]: 68.7%; viability, T/C [23]: 77.5%; viability, T/C [24]: 76.8%; viability, T/C [25]: 80.8%; viability, T/C [26]: 73.8%; viability, T/C [27]: 77.4%; viability, T/C [28]: 76.5%; viability, T/C [29]: 68.9%; viability, T/C [30]: 65.6%

Question: How did the pIC50 (second compound 0.1 µM) turn out when COc1ccc([C@@H](O)c2cc(-c3ncnc4cc(N5CCOCC5)ccc34)c(F)cc2Cl)nn1 + NC1CC1c1ccc(-c2cccc(O)c2)cc1 was run?
Answer: 5.55

Question: What about the pIC50 (second compound 0.316 µM) of the same compound?
Answer: 5.90

Question: And the pIC50 (second compound 1 µM)?
Answer: 6.01

Question: What about the pIC50 (second compound 3.16 µM) of the same compound?
Answer: 5.95

Question: What about the pIC50 (second compound 10 µM) of the same compound?
Answer: 6.01

Question: What about the viability, T/C [1] of the same compound?
Answer: 79.2%

Question: And the viability, T/C [2]?
Answer: 84.6%

Question: And the viability, T/C [3]?
Answer: 72.1%

Question: What about the viability, T/C [4] of the same compound?
Answer: 55%

Question: And the viability, T/C [5]?
Answer: 54.1%

Question: And the viability, T/C [6]?
Answer: 28.5%

Question: What about the viability, T/C [7] of the same compound?
Answer: 74.1%

Question: What about the viability, T/C [8] of the same compound?
Answer: 86.5%

Question: What about the viability, T/C [9] of the same compound?
Answer: 65.8%

Question: What about the viability, T/C [10] of the same compound?
Answer: 51.1%

Question: And the viability, T/C [11]?
Answer: 40.7%

Question: And the viability, T/C [12]?
Answer: 26.5%

Question: And the viability, T/C [13]?
Answer: 85.6%

Question: And the viability, T/C [14]?
Answer: 74.3%

Question: And the viability, T/C [15]?
Answer: 70.2%

Question: What about the viability, T/C [16] of the same compound?
Answer: 49.3%

Question: And the viability, T/C [17]?
Answer: 31.9%

Question: And the viability, T/C [18]?
Answer: 24.4%

Question: And the viability, T/C [19]?
Answer: 77.4%

Question: And the viability, T/C [20]?
Answer: 71.5%

Question: What about the viability, T/C [21] of the same compound?
Answer: 63.2%

Question: And the viability, T/C [22]?
Answer: 49.5%

Question: What about the viability, T/C [23] of the same compound?
Answer: 39.4%

Question: What about the viability, T/C [24] of the same compound?
Answer: 22.6%

Question: And the viability, T/C [25]?
Answer: 71.2%

Question: And the viability, T/C [26]?
Answer: 70.6%

Question: And the viability, T/C [27]?
Answer: 58.2%

Question: And the viability, T/C [28]?
Answer: 53.3%

Question: And the viability, T/C [29]?
Answer: 33%

Question: What about the viability, T/C [30] of the same compound?
Answer: 26.1%

Question: How did the pIC50 (second compound 0.1 µM) turn out when COc1cc(C2c3cc4c(cc3C(OC3OC5COC(C)OC5C(O)C3O)C3COC(=O)C23)OCO4)cc(OC)c1O (stereo not given) + NC1CCC(NC2CC2c2ccccc2)CC1 was run?
Answer: 7.05

Question: What about the pIC50 (second compound 0.316 µM) of the same compound?
Answer: 6.91

Question: And the pIC50 (second compound 1 µM)?
Answer: 7.19

Question: What about the pIC50 (second compound 3.16 µM) of the same compound?
Answer: 6.77

Question: What about the pIC50 (second compound 10 µM) of the same compound?
Answer: 6.62

Question: What about the viability, T/C (second compound 0.1 µM, first compound 0.00949 µM) of the same compound?
Answer: 70.8%

Question: And the viability, T/C (second compound 0.1 µM, first compound 0.03 µM)?
Answer: 61.6%

Question: What about the viability, T/C (second compound 0.1 µM, first compound 0.0949 µM) of the same compound?
Answer: 48.6%

Question: And the viability, T/C (second compound 0.1 µM, first compound 0.3 µM)?
Answer: 38.2%

Question: What about the viability, T/C (second compound 0.1 µM, first compound 0.949 µM) of the same compound?
Answer: 37.6%

Question: And the viability, T/C (second compound 0.1 µM, first compound 3 µM)?
Answer: 28.3%

Question: And the viability, T/C (second compound 0.316 µM, first compound 0.00949 µM)?
Answer: 68.6%

Question: And the viability, T/C (second compound 0.316 µM, first compound 0.03 µM)?
Answer: 63.7%

Question: What about the viability, T/C (second compound 0.316 µM, first compound 0.0949 µM) of the same compound?
Answer: 54.5%

Question: What about the viability, T/C (second compound 0.316 µM, first compound 0.3 µM) of the same compound?
Answer: 36.6%

Question: What about the viability, T/C (second compound 0.316 µM, first compound 0.949 µM) of the same compound?
Answer: 31.3%

Question: What about the viability, T/C (second compound 0.316 µM, first compound 3 µM) of the same compound?
Answer: 29.7%

Question: What about the viability, T/C (second compound 1 µM, first compound 0.00949 µM) of the same compound?
Answer: 74.5%

Question: What about the viability, T/C (second compound 1 µM, first compound 0.03 µM) of the same compound?
Answer: 52.6%

Question: And the viability, T/C (second compound 1 µM, first compound 0.0949 µM)?
Answer: 50.2%

Question: What about the viability, T/C (second compound 1 µM, first compound 0.3 µM) of the same compound?
Answer: 35.7%

Question: What about the viability, T/C (second compound 1 µM, first compound 0.949 µM) of the same compound?
Answer: 37.5%

Question: What about the viability, T/C (second compound 1 µM, first compound 3 µM) of the same compound?
Answer: 26.8%

Question: What about the viability, T/C (second compound 3.16 µM, first compound 0.00949 µM) of the same compound?
Answer: 71.5%

Question: And the viability, T/C (second compound 3.16 µM, first compound 0.03 µM)?
Answer: 66.6%

Question: What about the viability, T/C (second compound 3.16 µM, first compound 0.0949 µM) of the same compound?
Answer: 55.9%

Question: What about the viability, T/C (second compound 3.16 µM, first compound 0.3 µM) of the same compound?
Answer: 44.9%

Question: What about the viability, T/C (second compound 3.16 µM, first compound 0.949 µM) of the same compound?
Answer: 31.3%

Question: What about the viability, T/C (second compound 3.16 µM, first compound 3 µM) of the same compound?
Answer: 30.3%

Question: What about the viability, T/C (second compound 10 µM, first compound 0.00949 µM) of the same compound?
Answer: 68.3%

Question: And the viability, T/C (second compound 10 µM, first compound 0.03 µM)?
Answer: 60.6%

Question: What about the viability, T/C (second compound 10 µM, first compound 0.0949 µM) of the same compound?
Answer: 57.7%

Question: And the viability, T/C (second compound 10 µM, first compound 0.3 µM)?
Answer: 49.9%

Question: What about the viability, T/C (second compound 10 µM, first compound 0.949 µM) of the same compound?
Answer: 37.3%

Question: What about the viability, T/C (second compound 10 µM, first compound 3 µM) of the same compound?
Answer: 31.3%

Question: How did the pIC50 (second compound 0.1 µM) turn out when Nc1ncn(C2CC(O)C(CO)O2)c(=O)n1 (stereo not given) + NC1CCC(NC2CC2c2ccccc2)CC1 was run?
Answer: < 6.00

Question: And the pIC50 (second compound 0.316 µM)?
Answer: < 6.00

Question: What about the pIC50 (second compound 1 µM) of the same compound?
Answer: < 6.00

Question: And the pIC50 (second compound 3.16 µM)?
Answer: < 6.00

Question: And the pIC50 (second compound 10 µM)?
Answer: < 6.00

Question: What about the viability, T/C (second compound 0.1 µM, first compound 0.00316 µM) of the same compound?
Answer: 102%

Question: And the viability, T/C (second compound 0.1 µM, first compound 0.01 µM)?
Answer: 89.1%

Question: And the viability, T/C [1]?
Answer: 91.4%

Question: And the viability, T/C [2]?
Answer: 69%

Question: What about the viability, T/C [3] of the same compound?
Answer: 68.9%

Question: What about the viability, T/C [4] of the same compound?
Answer: 70.7%

Question: And the viability, T/C (second compound 0.316 µM, first compound 0.00316 µM)?
Answer: 93.3%

Question: And the viability, T/C (second compound 0.316 µM, first compound 0.01 µM)?
Answer: 105%

Question: And the viability, T/C [7]?
Answer: 87.5%

Question: What about the viability, T/C [8] of the same compound?
Answer: 82.7%

Question: What about the viability, T/C [9] of the same compound?
Answer: 75.8%

Question: What about the viability, T/C [10] of the same compound?
Answer: 64.4%

Question: And the viability, T/C (second compound 1 µM, first compound 0.00316 µM)?
Answer: 92.1%

Question: And the viability, T/C (second compound 1 µM, first compound 0.01 µM)?
Answer: 86.5%

Question: And the viability, T/C [13]?
Answer: 86.9%

Question: What about the viability, T/C [14] of the same compound?
Answer: 75.1%

Question: And the viability, T/C [15]?
Answer: 81.8%

Question: What about the viability, T/C [16] of the same compound?
Answer: 62%

Question: And the viability, T/C (second compound 3.16 µM, first compound 0.00316 µM)?
Answer: 87.1%

Question: And the viability, T/C (second compound 3.16 µM, first compound 0.01 µM)?
Answer: 87.6%

Question: And the viability, T/C [19]?
Answer: 94.2%

Question: What about the viability, T/C [20] of the same compound?
Answer: 81.4%

Question: What about the viability, T/C [21] of the same compound?
Answer: 77.4%

Question: And the viability, T/C [22]?
Answer: 78%

Question: And the viability, T/C (second compound 10 µM, first compound 0.00316 µM)?
Answer: 93.5%

Question: What about the viability, T/C (second compound 10 µM, first compound 0.01 µM) of the same compound?
Answer: 99.3%

Question: What about the viability, T/C [25] of the same compound?
Answer: 85.8%

Question: What about the viability, T/C [26] of the same compound?
Answer: 86.6%

Question: And the viability, T/C [27]?
Answer: 73.3%

Question: And the viability, T/C [28]?
Answer: 82.5%
